The source of these data is US10995099B2, “Compounds and their uses as ACC inhibitors” (NANJING RUIJIE PHARMATECH CO., LTD., priority 2017, dated 2021).

SMILES strings stand for the structures. Where two headings read alike, the source gives them in different places.

Assay [1] has as its system HepG2. The assay is described as follows: EC50 in HepG2. The format is cell-based.
In assay [2] the target is ACC1 (Homo sapiens (Human), UniProt Q13085). Nature of the assay: In vitro ACC inhibition assay (ADP-Glo), ACC1. The format is biochemical. As for the experimental part: (§1) Compounds of the present invention were evaluated in an in vitro ACC inhibition assay as described by Harwood, et al, 2003, the entirety of which is incorporated herein by reference.
(§2) In Vitro Acetyl-CoA Carboxylase (ACC) Inhibition Assay
(§3) An exemplary procedure for the in vitro ACC inhibition assay, which can be used to determine the inhibitory action of compounds of the invention toward either ACC1 or ACC2, follows. The ADP-Glo™ Kinase Assay kit from Promega was used. The ADP-Glo™ Kinase Assay is a luminescent ADP detection assay to measure enzymatic activity by quantifying the amount of ADP produced during an enzyme reaction. The assay is performed in two steps; first, after the enzyme reaction, an equal volume of ADP-Glo™ Reagent is added to terminate the reaction and deplete the remaining ATP. Second, the Kinase Detection Reagent is added to simultaneously convert ADP to ATP and allow the newly synthesized ATP to be measured using a luciferase/luciferin reaction. Luminescence can be correlated to ADP concentrations by using an ATP-to-ADP conversion curve. The detailed procedure is as follows. 50 μL of the compound being tested (600 uM in DMSO) was added to a 384-well dilution plate. The compound was diluted 1:3 in succession in DMSO for each row for 11 wells. 0.5 μL ACC2 working solution was added to 384-well white Optiplate assay plate. 0.5 μL diluted compound solution in each column from step 2 to assay plate, each row containing 2 replicates. […] The plates were incubated at room temperature for 15 minutes. 5 μL substrate working solution was added to each well to initiate reaction. Final ACC2 reaction concentrations consist of: 5 nM ACC2, 20 μM ATP, 20 μM acetyl-CoA, 12 mM NaHCO3, 0.01% Brij35, 2 mM DTT, 5% DMSO, test compound concentrations: 30 μM, 10 μM, 3.33 μM, 1.11 μM, 0.37 μM, 0.123 μM, 0.0411 μM, 0.0137 μM, 0.00457 μM, 0.00152 μM, and 0.00051 μM. Plates were incubated at room temperature for 60 minutes. 10 μL ADP glo reagent was added. Plates were incubated at room temperature for 40 minutes. 20 μL kinase detection reagent was added. Plates were incubated at room temperature for 40 minutes, then read on a Perkin Elmer EnVision 2104 plate reader for luminescence as Relative Light Units (RLU).
(§4) Data for each concentration, as well as the positive and negative controls were averaged, and the standard deviation calculated. Percent inhibition was calculated by the formula: 100×(average negative control-compound)/(average negative control-average positive control). The IC50 for each compound was calculated by fitting the data with a non-linear regress ion equation: Y=Bottom+(Top−Bottom)/(1+10((Log IC50−X* HillSlope)), where X is the log of compound concentration and Y is percent inhibition.

Assay [3] has as its system A549. Nature of the assay: EC50 in A549. The assay is classed as cell-based. The note with it: A549; read-out: EC50 (μM) A549.
The target of assay [4] is ACC2 (Homo sapiens (Human), UniProt O00763). Nature of the assay: In vitro ACC inhibition assay (ADP-Glo), ACC2. The format is biochemical. How it is done:
as §1, §2, §3, §4

Assay [5] deals with MDA-MB-468. The assay is described as follows: EC50 in MDA-MB-468. The note with it: MDA-MB-468; read-out: EC50 (μM) MDA-MB-468. The assay is classed as cell-based.
The subject of assay [6] is ACC1. The note with it: ACC1 isolated from rat, mouse, monkey and human; cited from earlier work.
Assay [7] concerns ACC2. The settings on record: ACC2 isolated from rat, mouse, monkey and human; cited from earlier work.
Where [8] appears, read: HepG2, read-out: EC50 (μM) HepG2.
The mark [9] stands for this setting: ND630 versus RJ compounds, read-out: EC50 (μM) ND630/RJ-cmps(%).
[10] abbreviates: 5 nM ACC2, 20 μM ATP, 20 μM acetyl-CoA, read-out: IC50 (μM) ACC2.
The mark [11] stands for this setting: ND630 versus RJ compounds, isoform not given, read-out: IC50 (μM) ND630/RJ-cmps(%).

Chain of ACC2 (Homo sapiens (Human), UniProt O00763) (O00763 whole entry, species assumed): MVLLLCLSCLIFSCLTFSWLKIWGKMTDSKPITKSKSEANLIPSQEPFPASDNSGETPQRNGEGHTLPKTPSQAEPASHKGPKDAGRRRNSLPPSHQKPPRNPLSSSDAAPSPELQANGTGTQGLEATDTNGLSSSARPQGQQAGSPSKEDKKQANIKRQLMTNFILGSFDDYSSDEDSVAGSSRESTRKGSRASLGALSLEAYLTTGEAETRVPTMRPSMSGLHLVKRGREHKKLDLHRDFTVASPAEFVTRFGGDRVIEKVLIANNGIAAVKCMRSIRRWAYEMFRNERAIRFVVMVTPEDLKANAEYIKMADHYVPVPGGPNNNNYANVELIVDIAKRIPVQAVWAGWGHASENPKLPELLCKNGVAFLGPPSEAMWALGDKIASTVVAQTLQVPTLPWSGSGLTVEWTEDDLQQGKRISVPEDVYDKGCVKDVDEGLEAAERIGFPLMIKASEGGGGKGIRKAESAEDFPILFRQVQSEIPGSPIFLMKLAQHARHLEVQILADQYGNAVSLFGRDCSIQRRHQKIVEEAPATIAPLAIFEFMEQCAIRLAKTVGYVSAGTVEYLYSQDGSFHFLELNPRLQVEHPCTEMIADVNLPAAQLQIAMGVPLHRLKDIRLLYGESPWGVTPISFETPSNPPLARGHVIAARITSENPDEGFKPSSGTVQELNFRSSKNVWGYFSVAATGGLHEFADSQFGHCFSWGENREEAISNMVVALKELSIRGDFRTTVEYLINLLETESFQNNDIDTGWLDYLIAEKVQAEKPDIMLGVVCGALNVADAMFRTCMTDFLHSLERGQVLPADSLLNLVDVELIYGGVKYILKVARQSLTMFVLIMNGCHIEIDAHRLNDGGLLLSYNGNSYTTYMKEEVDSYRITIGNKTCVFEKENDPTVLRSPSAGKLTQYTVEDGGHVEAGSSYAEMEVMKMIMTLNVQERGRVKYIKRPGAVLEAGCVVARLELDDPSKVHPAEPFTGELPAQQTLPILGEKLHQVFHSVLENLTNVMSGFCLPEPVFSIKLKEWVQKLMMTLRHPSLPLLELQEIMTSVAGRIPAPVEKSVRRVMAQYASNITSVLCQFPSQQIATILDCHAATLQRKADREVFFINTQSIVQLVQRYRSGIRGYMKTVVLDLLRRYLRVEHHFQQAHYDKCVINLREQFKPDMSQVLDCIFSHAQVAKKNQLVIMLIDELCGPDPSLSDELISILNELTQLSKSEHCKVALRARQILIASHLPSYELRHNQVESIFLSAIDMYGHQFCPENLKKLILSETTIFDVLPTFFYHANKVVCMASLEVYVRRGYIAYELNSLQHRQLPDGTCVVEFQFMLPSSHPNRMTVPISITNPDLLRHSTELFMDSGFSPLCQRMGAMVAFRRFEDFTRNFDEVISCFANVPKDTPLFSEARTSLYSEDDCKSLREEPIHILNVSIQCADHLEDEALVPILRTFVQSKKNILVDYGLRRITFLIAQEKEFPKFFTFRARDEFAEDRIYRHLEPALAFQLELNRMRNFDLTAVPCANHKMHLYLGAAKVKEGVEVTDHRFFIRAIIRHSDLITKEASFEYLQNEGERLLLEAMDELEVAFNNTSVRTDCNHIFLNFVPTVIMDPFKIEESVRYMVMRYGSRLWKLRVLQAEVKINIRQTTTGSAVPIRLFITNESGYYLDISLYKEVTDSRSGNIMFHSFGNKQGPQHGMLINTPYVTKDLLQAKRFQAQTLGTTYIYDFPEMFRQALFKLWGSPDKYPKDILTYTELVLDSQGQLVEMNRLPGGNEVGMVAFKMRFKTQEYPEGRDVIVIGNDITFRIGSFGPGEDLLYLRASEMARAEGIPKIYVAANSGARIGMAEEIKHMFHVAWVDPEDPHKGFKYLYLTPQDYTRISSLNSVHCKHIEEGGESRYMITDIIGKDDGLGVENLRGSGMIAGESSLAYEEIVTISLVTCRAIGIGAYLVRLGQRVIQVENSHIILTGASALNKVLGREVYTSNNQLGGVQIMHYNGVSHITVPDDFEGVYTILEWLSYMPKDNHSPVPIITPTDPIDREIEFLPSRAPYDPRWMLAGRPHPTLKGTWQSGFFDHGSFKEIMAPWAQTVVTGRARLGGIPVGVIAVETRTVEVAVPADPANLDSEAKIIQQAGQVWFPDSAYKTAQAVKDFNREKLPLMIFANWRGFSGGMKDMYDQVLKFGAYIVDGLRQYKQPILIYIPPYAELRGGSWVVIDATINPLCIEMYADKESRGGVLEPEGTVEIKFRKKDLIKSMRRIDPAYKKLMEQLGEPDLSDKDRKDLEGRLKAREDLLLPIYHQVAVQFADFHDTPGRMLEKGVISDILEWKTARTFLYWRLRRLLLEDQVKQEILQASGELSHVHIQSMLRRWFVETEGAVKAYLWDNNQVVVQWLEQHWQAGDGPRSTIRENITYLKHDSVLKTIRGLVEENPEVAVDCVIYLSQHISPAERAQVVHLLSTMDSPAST

Consider `COc1ccccc1[C@H](Cn1c(=O)n(C2(C(=O)O)CCC2)c(=O)c2c(C)c(Br)sc21)OC1CCOCC1` [Example 31], for which the EC50 was 0.01 to 0.1 µM in assay [1] (setting [8]), over 1 µM in assay [1] (setting [9]), under 0.5 µM in assay [3] and over 10 µM in assay [5]. In addition, the IC50 in assay [2] is 0.001 to 0.01 µM; in assay [4] (setting [10]) it was under 0.01 µM; in assay [4] (setting [11]), 0.003 to 0.005 µM.
On to `COc1ccccc1C(Cn1c(=O)n(C2(C(=O)O)CCC2)c(=O)c2c(C)c(-c3ncco3)sc21)OC1CCOCC1` (stereo not drawn) [Example 37], for which the EC50 in assay [1] (setting [8]) is 0.01 to 0.1 µM; in assay [1] (setting [9]), over 1 µM; in assay [3] it was under 0.5 µM; in assay [5], over 10 µM. The values for the IC50 in assay [2], in assay [4] (setting [10]) and in assay [4] (setting [11]) were under 0.001 µM, under 0.01 µM and 0.005 to 0.01 µM, respectively.
Consider `COc1ccccc1C(Cn1c(=O)n(C2(C(=O)O)CCCC2)c(=O)c2c(C)c(-c3ncco3)sc21)OC1CCOCC1` (stereo not drawn) [Example 36], for which the EC50 in assay [1] (setting [8]) was 0.01 to 0.1 µM; in assay [1] (setting [9]), over 1 µM; in assay [3] it was 0.5 to 1 µM; in assay [5] it was over 10 µM. The results for the IC50 in assay [2], in assay [4] (setting [10]) and in assay [4] (setting [11]) were 0.001 to 0.01 µM, under 0.01 µM and 0.003 to 0.005 µM, respectively.
For `O=C(c1c2ccccc2cc2ccccc12)N1CCC(N2CCC[C@@H](C(=O)N3CCOCC3)C2)CC1` [CP-640186], the IC50 in assay [6] and in assay [7] was 60 nM throughout.
Turning to `COc1ccccc1[C@H](Cn1c(=O)n(C(C)(C)C(=O)O)c(=O)c2c(C)c(-c3ncco3)sc21)OC1CCOCC1` [Example 38], the EC50 is 0.01 to 0.1 µM in assay [1] (setting [8]), over 1 µM in assay [1] (setting [9]), under 0.5 µM in assay [3] and over 10 µM in assay [5]. For the same compound, the IC50 in assay [2] was under 0.001 µM; in assay [4] (setting [10]) it was under 0.01 µM; in assay [4] (setting [11]) it was 0.005 to 0.01 µM.
